Broadly, the MIC is the lowest concentration that inhibits growth of the organism. Read a low MIC as a more susceptible organism.

Each structure is given as a SMILES string. Values after ≈ are worked out from the molar mass of the structure shown. Where only a bound is given, the exact number is not on record here.

Data set [1] concerns S. aureus. Kind of data set: Disc inhibition zone, S. aureus vegetative cells. It counts as cell-based. To be noted: isolated compounds at 0.5 mg/ml, Table 9; for zone of inhibition at 500 µg/mL: Staphylococcus aureus. As to the method: (§1) For the antibacterial evaluations, adjusted solutions (5 μL) were transferred to sterile 6-mm diameter discs made from Whatman no. 1 filter paper, so that after solvent evaporation each disc contained 12.5 μg of solids from the enriched avocado seed extract. […] All test discs were left for about 1-2 hr in a Biological Safety Cabinet to evaporate the solvent. Suspensions of about 0.1 optical density (at 600 nm) containing approximately 1 to 2×10^8 CFU/ml of Clostridium sporogenes (ATCC 7955) vegetative cells, isolated native spores or isolated heat shocked spores were prepared as described in official protocols of Health Canada (Food Directorate, 2010). Aliquots of the suspensions (100 μL) were transferred to Petri dishes containing 15 ml of solid medium (TPGY medium) and spread evenly with a sterile plastic rod. […] The diameter of the inhibition zones (cm) around the discs were measured after 36 hrs.
(§2) The fractions obtained from Normal phase FCPC, were then used to assess their antimicrobial activities against the growth of vegetative cells from S. aureus and B. subtilis.
(§3) In this example, the antimicrobial activities of the same isolated compounds described in Example 10 (Table 5) were tested against the growth of vegetative cells and heat shocked spores of C. sporogenes, and on vegetative cells of S. aureus, P. aeuroginosa, E. coli. and B. subtilis as previously described in Example 1, and at a concentration of 0.5 mg/ml.

In data set [2] the test system is P. aeuroginosa. Kind of data set: Disc inhibition zone, P. aeuroginosa vegetative cells. In kind it is cell-based. To be noted: isolated compounds at 0.5 mg/ml, Table 9. The protocol:
(§4) For the antibacterial evaluations, adjusted solutions (5 μL) were transferred to sterile 6-mm diameter discs made from Whatman no. 1 filter paper, so that after solvent evaporation each disc contained 12.5 μg of solids from the enriched avocado seed extract. Experimental controls were treated under the same conditions that the extracts and included negative control discs that contained 5 μL of acetone, and for positive control discs 5 μL of a nisin solution (30 mg/ml in sterile water) were added to provide a residual concentration of 150 μg of nisin in each disc. All test discs were left for about 1-2 hr in a Biological Safety Cabinet to evaporate the solvent. Suspensions of about 0.1 optical density (at 600 nm) containing approximately 1 to 2×10^8 CFU/ml of Clostridium sporogenes (ATCC 7955) vegetative cells, isolated native spores or isolated heat shocked spores were prepared as described in official protocols of Health Canada (Food Directorate, 2010). Aliquots of the suspensions (100 μL) were transferred to Petri dishes containing 15 ml of solid medium (TPGY medium) and spread evenly with a sterile plastic rod. Four discs, each containing 12.5 μg of the test extract, and two more discs (one solvent blank and one nisin positive control) were placed each dish and incubated at 37° C. under anaerobic conditions. The diameter of the inhibition zones (cm) around the discs were measured after 36 hrs.
(§5) In this example, the antimicrobial activities of the same isolated compounds described in Example 10 (Table 5) were tested against the growth of vegetative cells and heat shocked spores of C. sporogenes, and on vegetative cells of S. aureus, P. aeuroginosa, E. coli. and B. subtilis as previously described in Example 1, and at a concentration of 0.5 mg/ml. […] Since it has been reported that persin is able to inhibit fungi spore germination (Prusky et al., 1982), and in the present experiment it seems to have the lowest activity, it can be assumed that the other bioactive compound would have a higher activity against fungi spore.

The test system of data set [3] is E. coli. The data set is described as follows: Disc inhibition zone, E. coli vegetative cells. In kind it is cell-based. To be noted: isolated compounds at 0.5 mg/ml, Table 9; for zone of inhibition at 500 µg/mL: Escherichia coli. The protocol: as §4, §5
Data set [4] relates to vegetative cells of Listeria monocytogenes. The data set is described as follows: Disc inhibition zone, Listeria monocytogenes at refrigeration and optimum temperature. It counts as cell-based. To be noted: 0.5 mg/ml.
The subject of data set [5] is Clostridium sporogenes (ATCC 7955) heat shocked spores. The data set is described as follows: microbe, parasite or virus in culture. In kind it is cell-based. To be noted: ATCC7955, isolated compounds at 0.5 mg/ml, read-out: Disc Inhibition Zone, Heat Shocked Spores. As to the method: as §4
For data set [6], the system named is Clostridium sporogenes (ATCC 7955) vegetative cells. The data set is described as follows: microbe, parasite or virus in culture. It counts as cell-based. To be noted: for zone of inhibition at 500 µg/mL: Clostridium sporogenes, ATCC7955, isolated compounds at 0.5 mg/ml, read-out: Disc Inhibition Zone, Vegetative Cells. As to the method:
as §4

The subject of data set [7] is heat shocked spores from C. sporogenes. The data set is described as follows: MIC and MBC, heat shocked spores. In kind it is cell-based. To be noted: Clostridium sporogenes, Example 11 method (Tables 6 and 10). As to the method: In order to further characterize the antibacterial activities of the fractions with the highest activity, it was important to determine their minimum inhibitory concentration (MIC), defined as the lowest concentration of an antimicrobial that will inhibit the visible growth of a microorganism after overnight incubation. […] But in the case of heat-shocked spores, the differences between nisin and the fractions with Kd of 0.4 were less pronounced, but still presented the desired inhibitory properties against spore germination.
In general terms, MIC is defined as the lowest concentration of an antimicrobial that will inhibit the visible growth of a microorganism after overnight incubation. While the MBC is the lowest concentration of the antimicrobial that will prevent the growth of a microorganism after subculture to fresh agar media free from the antibiotic or antimicrobial agent. The pool of active the fractions was tested at concentrations ranging from 0.005 to 2.5 mg/ml and nisin was used as control.

For data set [8], the system named is B. subtilis. The data set is described as follows: Disc inhibition zone, B. subtilis vegetative cells. In kind it is cell-based. To be noted: Bacillus subtilis, isolated compounds at 0.5 mg/ml, Table 9, read-out: Disc inhibition zone, B. Subtillis. As to the method: as §1, §2, §3
Data set [9] has as its system Colletotrichum gloeosporioides. To be noted: cited from earlier work.
The test system of data set [10] is lactating mammary gland and myocardial fibers of mice. To be noted: cited from earlier work.
The test system of data set [11] is silkworm larvae Bombyx mori L. To be noted: in vivo; cited from earlier work.
Data set [12] concerns Spodoptera exigua. The settings on record: in vivo; cited from earlier work.

For `CC/C=C/CCCCCCCCC/C=C/C(=O)C[C@@H](O)COC(C)=O` (single isomer, unassigned) [Compound 6], the zone of inhibition at 500 µg/mL in data set [1] turned out to be 0 mm; in data set [2], 0 mm; in data set [3], 0 mm; in data set [4] (37° C, 48 hours), 0 mm; in [4] (480 h, 4° C., 20 days), 11 mm; in data set [5], 17 mm. Further, the results for the zone of inhibition at 500 µg/mL in data set [6] and in data set [8] were 19 mm and 13 mm, respectively. The “Disc inhibition zone, S. aureus” value in [1] is on record as “did not show inhibitory activity”. For the same molecule, the “Disc inhibition zone, P. aeuroginosa” value in data set [2] was “did not show inhibitory activity”. In [3], the “Disc inhibition zone, E. coli” value is “did not show inhibitory activity”. In data set [7], this molecule yielded an MIC of 15.6 µg/mL (≈ 44.3 µM).
`CCCCC/C=C\C/C=C\CCCCC/C=C/C(=O)C[C@@H](O)COC(C)=O` (single isomer, unassigned) [Compound 7]: the zone of inhibition at 500 µg/mL was 0 mm in [1]; 0 mm in [2]; 0 mm in [3]; 0 mm in data set [4] (37° C, 48 hours); 11 mm in data set [4] (480 h, 4° C., 20 days); 15 mm in data set [5]. Moreover, the zone of inhibition at 500 µg/mL was determined as 16 mm in data set [6] and 7 mm in data set [8]. For the same molecule, in data set [1], the “Disc inhibition zone, S. aureus” value is listed as “did not show inhibitory activity”. Further, the “Disc inhibition zone, P. aeuroginosa” value in [2] is “did not show inhibitory activity”. The “Disc inhibition zone, E. coli” value in [3] is given as “did not show inhibitory activity”. Also, inhibition of growth in data set [7] (MIC) required 7.8 µg/mL (≈ 20.6 µM).
As to `C=CCCCCCCCCCCC[C@H](O)C[C@H](O)COC(C)=O` [Compound 3, (2S, 4S)-1-acetoxy-2,4-dihydroxy-n-heptadeca-16-ene], the “bioactivity fold lower than that of persin” value in [9] is reported as 3 fold. Besides, the zone of inhibition at 500 µg/mL in data set [4] (37° C, 48 hours) came out at 0 mm; in [4] (480 h, 4° C., 20 days), 0 mm; in [5], 10 mm; in [6] it was 11 mm.
`C=C/C=C/CCCCCCCCCCCC(=O)C[C@@H](O)COC(C)=O` [Compound 5, (2R, 16E)-1-acetoxy-2-hydroxy-4-oxo-nonadeca-16,18-diene]: the zone of inhibition at 500 µg/mL in data set [4] (37° C, 48 hours) came to 0 mm; in data set [4] (480 h, 4° C., 20 days) it was 0 mm; in data set [5] it was 11 mm; in data set [6], 10 mm.
With `CCCCCCCCCCCCC/C=C/C(=O)C[C@@H](O)COC(C)=O` [Compound 9A, (5E)-1-acetoxy-2-hydroxy-5-nonadecen-4-one], the zone of inhibition at 500 µg/mL was 0 mm in data set [1]; 0 mm in data set [2]; 0 mm in data set [3]; 0 mm in data set [4] (37° C, 48 hours); 10 mm in data set [4] (480 h, 4° C., 20 days); 17 mm in [5]. The zone of inhibition at 500 µg/mL in data set [6] worked out at 19 mm; in [8], 0 mm. Moreover, in data set [1], the “Disc inhibition zone, S. aureus” value is given as “did not show inhibitory activity”. Also, the “Disc inhibition zone, P. aeuroginosa” value in data set [2] is listed as “did not show inhibitory activity”. Also, in data set [3], the “Disc inhibition zone, E. coli” value is on record as “did not show inhibitory activity”. This molecule also registered an MIC in data set [7] of 7.8 µg/mL (≈ 22 µM).
Regarding `CCCCC/C=C\C/C=C\CCCCCCCC(=O)C[C@@H](O)COC(C)=O` [Compound 9B, (R, 12Z, 15Z)-1-acetoxy-2-hydroxy-4-oxo-heneicosa-12,15-diene], the “concentration inhibiting fungi spore germination completely” value in [9] was 790 µg/mL. In data set [10], the “dose rate inducing lactating mammary gland necrosis” value is 60 to 100 mg/kg. The “doses at which necrosis of myocardial fibers may occur” value in data set [10] is “above 100 mg/kg”. In addition, the zone of inhibition at 500 µg/mL is 0 mm in data set [4] (37° C, 48 hours); 0 mm in data set [4] (480 h, 4° C., 20 days); 6 mm in data set [5]; 10 mm in [6]. For the same molecule, in data set [6] (lack of C5-C6 double bond, 0.5 mg/ml), the “antimicrobial activity reduced compared with persenone A” value is reported as 37.5%. Further, the “concentration in the artificial diet inhibiting larval feeding” value in data set [11] was at least 200 µg/g. Besides, the “concentration of diet with inhibitory effects on feeding” value in data set [12] is 400 µg/g. Also, the “concentration of diet with inhibitory effects on larval growth” value in [12] was 200 µg/g.

The record behind these values is US10582707B2, “Antimicrobial antibacterial and spore germination inhibiting activity from an avocado extract enriched in bioactive compounds” (priority 2010, dated 2020).
